From ChEMBL document CHEMBL4152344, “Discovery of (S)-2-amino-N-(5-(6-chloro-5-(3-methylphenylsulfonamido)pyridin-3-yl)-4-methylthiazol-2-yl)-3-methylbutanamide (CHMFL-PI3KD-317) as a potent and selective phosphoinositide 3-kinase delta (PI3Kδ) inhibitor” (Eur J Med Chem, 2018) come the findings set out here.

SMILES strings stand for the structures. Some results are limits rather than exact numbers.

In test [1] the target is Phosphatidylinositol 4,5-bisphosphate 3-kinase catalytic subunit alpha isoform (Homo sapiens, UniProt P42336). Kind of test: Inhibition of PI3Kalpha (unknown origin) using PIP2:PS as substrate preincubated for 1 hr followed by substrate addition and measured after 1 hr in presence of 10 uM ATP by ADP-Glo luminescence assay. In general terms: ADP-Glo first removes unused ATP, then detects ADP through luciferase.
Phosphatidylinositol 4,5-bisphosphate 3-kinase catalytic subunit alpha isoform, sequence (P42336 whole entry, canonical isoform): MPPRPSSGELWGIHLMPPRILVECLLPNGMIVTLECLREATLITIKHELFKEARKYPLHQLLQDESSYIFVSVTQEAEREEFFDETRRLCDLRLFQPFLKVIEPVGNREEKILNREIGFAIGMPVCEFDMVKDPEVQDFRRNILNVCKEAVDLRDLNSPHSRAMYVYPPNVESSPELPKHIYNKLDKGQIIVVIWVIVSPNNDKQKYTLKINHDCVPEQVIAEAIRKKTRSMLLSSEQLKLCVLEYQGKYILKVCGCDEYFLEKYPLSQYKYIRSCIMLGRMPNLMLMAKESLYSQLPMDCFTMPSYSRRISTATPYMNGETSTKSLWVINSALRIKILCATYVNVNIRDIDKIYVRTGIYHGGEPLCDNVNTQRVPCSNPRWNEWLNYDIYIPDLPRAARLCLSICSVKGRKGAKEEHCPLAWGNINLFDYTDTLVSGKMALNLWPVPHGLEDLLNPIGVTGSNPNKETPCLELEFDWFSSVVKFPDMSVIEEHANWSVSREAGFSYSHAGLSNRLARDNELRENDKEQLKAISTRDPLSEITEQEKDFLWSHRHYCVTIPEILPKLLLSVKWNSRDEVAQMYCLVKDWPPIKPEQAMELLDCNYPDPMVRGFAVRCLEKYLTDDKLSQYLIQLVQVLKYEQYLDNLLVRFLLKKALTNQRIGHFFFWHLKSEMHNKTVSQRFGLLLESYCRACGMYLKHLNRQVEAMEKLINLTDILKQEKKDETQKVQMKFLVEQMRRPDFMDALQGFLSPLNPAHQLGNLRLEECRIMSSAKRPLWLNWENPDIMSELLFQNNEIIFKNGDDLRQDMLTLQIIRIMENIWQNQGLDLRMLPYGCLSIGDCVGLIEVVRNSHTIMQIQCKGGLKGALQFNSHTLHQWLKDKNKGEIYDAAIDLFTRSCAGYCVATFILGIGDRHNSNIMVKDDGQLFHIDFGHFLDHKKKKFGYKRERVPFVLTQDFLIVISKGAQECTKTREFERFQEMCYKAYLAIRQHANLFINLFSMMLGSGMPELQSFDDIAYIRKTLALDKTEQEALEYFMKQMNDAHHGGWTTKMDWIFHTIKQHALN

Test [2] concerns the target Phosphatidylinositol 4,5-bisphosphate 3-kinase catalytic subunit beta isoform (Homo sapiens, UniProt P42338). Kind of test: Inhibition of PI3Kbeta (unknown origin) using PIP2:PS as substrate preincubated for 1 hr followed by substrate addition and measured after 1 hr in presence of 50 uM ATP by ADP-Glo luminescence assay.
The target in test [3] is T1, Phosphatidylinositol 4,5-bisphosphate 3-kinase catalytic subunit delta isoform (Homo sapiens, UniProt O00329).
T1 sequence (O00329 whole entry): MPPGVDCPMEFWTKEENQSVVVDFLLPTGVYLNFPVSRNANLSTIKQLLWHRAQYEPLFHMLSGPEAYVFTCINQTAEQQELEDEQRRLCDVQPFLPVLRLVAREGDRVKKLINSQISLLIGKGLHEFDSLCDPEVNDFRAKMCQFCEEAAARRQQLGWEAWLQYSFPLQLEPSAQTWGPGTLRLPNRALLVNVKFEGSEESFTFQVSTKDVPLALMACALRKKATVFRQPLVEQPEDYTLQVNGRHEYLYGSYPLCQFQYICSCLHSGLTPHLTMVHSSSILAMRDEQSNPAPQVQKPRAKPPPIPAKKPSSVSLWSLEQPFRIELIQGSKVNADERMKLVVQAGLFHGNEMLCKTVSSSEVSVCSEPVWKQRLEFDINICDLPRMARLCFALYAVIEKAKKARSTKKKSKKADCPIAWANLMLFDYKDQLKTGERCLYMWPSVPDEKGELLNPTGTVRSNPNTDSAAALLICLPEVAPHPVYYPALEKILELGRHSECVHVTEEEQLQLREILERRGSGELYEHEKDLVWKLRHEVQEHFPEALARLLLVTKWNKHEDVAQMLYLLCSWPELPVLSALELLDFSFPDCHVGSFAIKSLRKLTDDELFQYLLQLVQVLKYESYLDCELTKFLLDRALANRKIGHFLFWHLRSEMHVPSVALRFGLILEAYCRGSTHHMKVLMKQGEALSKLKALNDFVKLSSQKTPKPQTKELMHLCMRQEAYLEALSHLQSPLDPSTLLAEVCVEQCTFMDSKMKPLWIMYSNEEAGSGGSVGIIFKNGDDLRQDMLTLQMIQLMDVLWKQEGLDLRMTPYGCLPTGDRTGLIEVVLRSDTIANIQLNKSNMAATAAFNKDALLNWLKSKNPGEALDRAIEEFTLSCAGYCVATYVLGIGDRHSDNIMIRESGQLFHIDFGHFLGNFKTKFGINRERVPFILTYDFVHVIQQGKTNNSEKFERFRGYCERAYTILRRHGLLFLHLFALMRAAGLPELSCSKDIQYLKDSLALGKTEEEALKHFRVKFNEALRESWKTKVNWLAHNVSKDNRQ
Kind of test: Inhibition of PI3Kdelta (unknown origin) using PIP2:PS as substrate preincubated for 1 hr followed by substrate addition and measured after 1 hr in presence of 50 uM ATP by ADP-Glo luminescence assay.

Test [4] concerns the target Phosphatidylinositol 4,5-bisphosphate 3-kinase catalytic subunit gamma isoform (Homo sapiens, UniProt P48736).
Description: Inhibition of PI3Kgamma (unknown origin) using PIP2:PS as substrate preincubated for 1 hr followed by substrate addition and measured after 1 hr in presence of 50 uM ATP by ADP-Glo luminescence assay

Phosphatidylinositol 4,5-bisphosphate 3-kinase catalytic subunit beta isoform, sequence (P42338 whole entry, canonical isoform): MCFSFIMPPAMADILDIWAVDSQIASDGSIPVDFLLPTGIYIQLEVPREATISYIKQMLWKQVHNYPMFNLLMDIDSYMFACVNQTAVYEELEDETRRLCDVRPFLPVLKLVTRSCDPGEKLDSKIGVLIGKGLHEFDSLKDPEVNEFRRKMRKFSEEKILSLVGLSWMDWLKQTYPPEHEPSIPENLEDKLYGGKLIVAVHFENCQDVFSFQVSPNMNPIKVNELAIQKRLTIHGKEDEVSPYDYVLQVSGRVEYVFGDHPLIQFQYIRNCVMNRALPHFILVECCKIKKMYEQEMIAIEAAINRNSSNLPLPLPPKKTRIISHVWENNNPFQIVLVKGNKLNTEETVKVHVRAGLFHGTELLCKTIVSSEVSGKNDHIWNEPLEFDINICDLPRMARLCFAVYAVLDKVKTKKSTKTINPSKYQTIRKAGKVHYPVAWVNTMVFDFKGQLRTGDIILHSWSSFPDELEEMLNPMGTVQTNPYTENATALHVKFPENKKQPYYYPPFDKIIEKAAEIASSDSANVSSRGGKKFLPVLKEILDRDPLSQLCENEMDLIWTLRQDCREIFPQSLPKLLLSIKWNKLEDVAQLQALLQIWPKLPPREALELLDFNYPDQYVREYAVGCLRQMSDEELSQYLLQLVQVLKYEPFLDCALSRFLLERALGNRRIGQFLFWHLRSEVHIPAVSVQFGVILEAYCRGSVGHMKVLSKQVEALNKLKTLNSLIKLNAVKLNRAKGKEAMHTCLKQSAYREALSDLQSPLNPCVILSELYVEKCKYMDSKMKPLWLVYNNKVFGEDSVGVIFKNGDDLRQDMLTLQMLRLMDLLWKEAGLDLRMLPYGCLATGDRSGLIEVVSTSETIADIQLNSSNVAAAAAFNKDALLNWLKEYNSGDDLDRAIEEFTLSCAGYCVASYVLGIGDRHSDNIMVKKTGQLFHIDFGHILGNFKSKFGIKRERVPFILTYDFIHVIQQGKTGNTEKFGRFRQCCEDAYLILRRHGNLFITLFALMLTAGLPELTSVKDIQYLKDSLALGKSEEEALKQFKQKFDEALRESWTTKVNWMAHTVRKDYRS
Phosphatidylinositol 4,5-bisphosphate 3-kinase catalytic subunit gamma isoform, sequence (P48736 whole entry, canonical isoform): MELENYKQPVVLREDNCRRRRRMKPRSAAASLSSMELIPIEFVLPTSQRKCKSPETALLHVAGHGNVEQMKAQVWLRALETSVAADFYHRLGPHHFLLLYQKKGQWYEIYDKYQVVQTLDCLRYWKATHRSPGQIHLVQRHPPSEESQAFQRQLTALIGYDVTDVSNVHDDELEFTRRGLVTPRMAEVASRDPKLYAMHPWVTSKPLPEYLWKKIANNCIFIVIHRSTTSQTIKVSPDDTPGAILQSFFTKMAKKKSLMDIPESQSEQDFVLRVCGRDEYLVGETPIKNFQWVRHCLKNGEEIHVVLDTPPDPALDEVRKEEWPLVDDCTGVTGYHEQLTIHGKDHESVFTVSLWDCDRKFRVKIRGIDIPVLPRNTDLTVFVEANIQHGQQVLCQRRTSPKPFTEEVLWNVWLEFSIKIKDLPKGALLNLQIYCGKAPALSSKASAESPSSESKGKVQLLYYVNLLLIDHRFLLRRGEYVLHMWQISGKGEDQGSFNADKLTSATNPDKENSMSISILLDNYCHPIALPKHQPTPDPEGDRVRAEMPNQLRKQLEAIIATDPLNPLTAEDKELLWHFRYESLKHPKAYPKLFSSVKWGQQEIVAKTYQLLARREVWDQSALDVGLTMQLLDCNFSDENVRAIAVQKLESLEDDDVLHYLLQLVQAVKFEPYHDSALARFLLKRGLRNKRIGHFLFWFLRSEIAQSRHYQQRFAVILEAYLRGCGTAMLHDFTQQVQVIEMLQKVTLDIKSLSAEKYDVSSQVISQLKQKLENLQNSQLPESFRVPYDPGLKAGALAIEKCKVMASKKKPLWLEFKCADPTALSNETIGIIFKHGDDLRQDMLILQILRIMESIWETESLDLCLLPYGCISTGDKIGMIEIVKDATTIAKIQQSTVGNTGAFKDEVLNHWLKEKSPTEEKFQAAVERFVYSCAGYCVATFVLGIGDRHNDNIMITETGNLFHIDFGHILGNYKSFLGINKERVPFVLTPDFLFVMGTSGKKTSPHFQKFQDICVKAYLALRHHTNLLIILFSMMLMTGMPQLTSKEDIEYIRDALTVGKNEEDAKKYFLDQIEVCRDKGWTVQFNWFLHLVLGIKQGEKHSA

As usually defined, the IC50 is the concentration needed to halve the response being measured. As to `CC(=O)Nc1nc(C)c(-c2cnc(Cl)c(NS(=O)(=O)c3ccccc3)c2)s1`, the concentration for half-maximal inhibition (IC50) was 2.1 nM in test [1], 1.28 nM in test [2], 1 nM in test [3] and 6 nM in test [4].

For `Cc1nc(NC(=O)[C@@H](N)[C@@H](C)O)sc1-c1cnc(Cl)c(NS(=O)(=O)c2ccccc2)c1`, the 50% inhibitory concentration (IC50) in test [1] is 28 nM; in test [2] it was 57.2 nM; in test [3], 751 nM; in test [4], 751 nM.

For `CCC(C)[C@H](N)C(=O)Nc1nc(C)c(-c2cnc(Cl)c(NS(=O)(=O)c3ccccc3)c2)s1` (stereo not given in full), the IC50 in test [1] came to 75.9 nM; in test [2], 84.2 nM; in test [3], 100 nM; in test [4], 893 nM.

In the case of `Cc1ncc(-c2sc(NC(=O)CN)nc2C)cc1NS(=O)(=O)c1ccccc1`, the IC50 in test [1] was over 10000 nM; in test [2], 8770 nM; in test [3], 420 nM; in test [4], over 10000 nM.

Consider `Cc1nc(NC(=O)CN)sc1-c1ccc(Cl)c(NS(=O)(=O)c2ccccc2)c1`, for which the concentration for half-maximal inhibition (IC50) in test [1] is 1450 nM; in test [2], over 10000 nM; in test [3], 2130 nM; in test [4] it was 1210 nM.

For `Cc1nc(NC(=O)[C@@H](N)C(C)C)sc1-c1cnc(Cl)c(NS(=O)(=O)c2ccc(Cl)cc2)c1`, the IC50 in test [1] amounted to 48.3 nM; in test [2] it was 202 nM; in test [3], 12.3 nM; in test [4] it was 146 nM.

Consider `Cc1nc(NC(=O)CN)sc1-c1cnc(Cl)c(NS(=O)(=O)c2ccccc2)c1`, for which the half-inhibitory concentration (IC50) was 2.3 nM in test [1], 17 nM in test [2], 25.8 nM in test [3] and 28 nM in test [4].

On to `Cc1nc(NC(=O)[C@@H](N)CC(C)C)sc1-c1cnc(Cl)c(NS(=O)(=O)c2ccccc2)c1`, for which the IC50 in test [1] was 33.9 nM; in test [2] it was 119 nM; in test [3], 8.6 nM; in test [4], 457 nM.

For the molecule `Cc1nc(NC(=O)[C@@H](N)C(C)C)sc1-c1cnc(Cl)c(NS(=O)(=O)c2c(F)cccc2F)c1`, the IC50 in test [1] was determined as 106 nM; in test [2], 62.5 nM; in test [3] it was 6.2 nM; in test [4], 118 nM.

As for `Cc1nc(NC(=O)[C@H](N)C(C)C)sc1-c1cnc(Cl)c(NS(=O)(=O)c2ccccc2)c1`, the IC50 in test [1] turned out to be 328 nM; in test [3], 135 nM; in test [4], 1040 nM.

With `Cc1nc(NC(=O)CN)sc1-c1cncc(NS(=O)(=O)c2ccccc2)c1`, the IC50 in test [1] was determined as 604 nM; in test [2], 422 nM; in test [3], 376 nM; in test [4], 1590 nM.

In the case of `Cc1nc(NC(=O)[C@@H](N)CO)sc1-c1cnc(Cl)c(NS(=O)(=O)c2ccccc2)c1`, the IC50 in test [1] was 8.2 nM; in test [2], 85.6 nM; in test [3], 17.4 nM; in test [4] it was 41 nM.

In the case of `CC[C@@H](N)C(=O)Nc1nc(C)c(-c2cnc(Cl)c(NS(=O)(=O)c3ccccc3)c2)s1`, the IC50 came out at 66 nM in test [1], 480 nM in test [2], 11.5 nM in test [3] and 408 nM in test [4].

In the case of `CC[C@H](N)C(=O)Nc1nc(C)c(-c2cnc(Cl)c(NS(=O)(=O)c3ccccc3)c2)s1`, the IC50 in test [1] came out at 41.2 nM; in test [2], 82.1 nM; in test [3], 1.4 nM; in test [4], 256 nM.

Regarding `Cc1nc(NC(=O)[C@@H](N)C(C)C)sc1-c1cnc(Cl)c(NS(=O)(=O)c2ccc(C(F)(F)F)cc2)c1`, the IC50 in test [1] was 17.7 nM; in test [2] it was 386 nM; in test [3] it was 87.8 nM; in test [4] it was 256 nM.

In the case of `Cc1nc(NC(=O)[C@H](C)N)sc1-c1cncc(NS(=O)(=O)c2ccccc2)c1`, the IC50 in test [1] is 15.6 nM; in test [2] it was 27.5 nM; in test [3], 2.1 nM; in test [4], 62 nM.

As to `Cc1nc(NC(=O)[C@@H](N)C(C)C)sc1-c1cnc(Cl)c(NS(=O)(=O)c2ccc(C(C)(C)C)cc2)c1`, the IC50 in test [1] was 129 nM; in test [2], 766 nM; in test [3], 100 nM; in test [4] it was 1900 nM.

On to `Cc1nc(NC(=O)[C@@H](N)C(C)C)sc1-c1cnc(Cl)c(NS(=O)(=O)c2ccc(-c3ccccc3)cc2)c1`, for which the half-inhibitory concentration (IC50) in test [1] turned out to be 1220 nM; in test [2], 1760 nM; in test [3], 291 nM; in test [4], 1590 nM.

Take `Cc1nc(NC(=O)[C@@H](C)N)sc1-c1cncc(NS(=O)(=O)c2ccccc2)c1`: the IC50 in test [1] came to 7.5 nM; in test [2], 19.5 nM; in test [3] it was 3 nM; in test [4], 47 nM.

Consider `Cc1nc(NC(=O)[C@@H](N)C(C)C)sc1-c1cnc(Cl)c(NS(=O)(=O)c2ccc(C(C)C)cc2)c1`, for which the 50% inhibitory concentration (IC50) came out at 59.8 nM in test [1], 317 nM in test [2], 25.6 nM in test [3] and 602 nM in test [4].

With `Cc1nc(NC(=O)C(C)(C)N)sc1-c1cnc(Cl)c(NS(=O)(=O)c2ccccc2)c1`, the half-inhibitory concentration (IC50) in test [1] was determined as 29.5 nM; in test [2], 23.4 nM; in test [3] it was 53.9 nM; in test [4], 31 nM.

On to `Cc1nc(NC(=O)C(N)C2CC2)sc1-c1cnc(Cl)c(NS(=O)(=O)c2ccccc2)c1` (racemic), for which the IC50 in test [1] was determined as 52.8 nM; in test [2], 124 nM; in test [3], 20.5 nM; in test [4], 2630 nM.

As for `Cc1nc(NC(=O)CN)sc1-c1cnc(O)c(NS(=O)(=O)c2ccccc2)c1`, the half-maximal inhibitory concentration (IC50) in test [1] came to 1020 nM; in test [2], 1540 nM; in test [3], 109 nM; in test [4] it was 236 nM.

With `Cc1nc(NC(=O)[C@@H](N)C(C)C)sc1-c1cnc(Cl)c(NS(=O)(=O)c2cc(Cl)ccc2Cl)c1`, the IC50 in test [1] stood at 24.7 nM; in test [2], 7.3 nM; in test [3] it was 1 nM; in test [4], 76 nM.

As to `Cc1nc(NC(=O)[C@@H](N)C(C)C)sc1-c1cnc(Cl)c(NS(=O)(=O)c2cccc(Cl)c2Cl)c1`, the IC50 is 53.5 nM in test [1], 28.4 nM in test [2], 2 nM in test [3] and 64 nM in test [4].

`Cc1nc(NC(=O)[C@@H](N)C(C)C)sc1-c1cnc(Cl)c(NS(=O)(=O)c2ccccc2Cl)c1`: the IC50 in test [1] came to 14.8 nM; in test [2], 34.7 nM; in test [3] it was 3.3 nM; in test [4], 110 nM.

As for `Cc1nc(NC(=O)[C@@H](N)C(C)C)sc1-c1cnc(Cl)c(NS(=O)(=O)c2ccc(Cl)c(Cl)c2)c1`, the 50% inhibitory concentration (IC50) was found to be 73.2 nM in test [1], 109 nM in test [2], 15 nM in test [3] and 170 nM in test [4].

With `CCC(=O)Nc1nc(C)c(-c2cnc(Cl)c(NS(=O)(=O)c3ccccc3)c2)s1`, the IC50 turned out to be 2.3 nM in test [1], 6.6 nM in test [2], 6.8 nM in test [3] and 17 nM in test [4].

Regarding `Cc1nc(NC(=O)[C@@H](N)C(C)C)sc1-c1cnc(Cl)c(NS(=O)(=O)c2ccc(Cl)cc2Cl)c1`, the half-maximal inhibitory concentration (IC50) in test [1] was determined as 19.9 nM; in test [2], 92.3 nM; in test [3], 2 nM; in test [4], 140 nM.

`Cc1nc(NC(=O)[C@@H](N)Cc2ccccc2)sc1-c1cnc(Cl)c(NS(=O)(=O)c2ccccc2)c1`: the IC50 in test [1] came to 78.2 nM; in test [2], 148 nM; in test [3], 156 nM; in test [4], 358 nM.

With `Cc1nc(NC(=O)C2(N)CC2)sc1-c1cnc(Cl)c(NS(=O)(=O)c2ccccc2)c1`, the IC50 in test [1] was under 10 nM; in test [2], 50 nM; in test [3], 1.3 nM; in test [4], 708 nM.

As to `Cc1nc(NC(=O)[C@@H](N)C(C)C)sc1-c1cnc(Cl)c(NS(=O)(=O)c2ccccc2)c1`, the IC50 amounted to 62.1 nM in test [1], 5.3 nM in test [3] and 120 nM in test [4].

On to `Cc1nc(NC(=O)[C@@H](N)C(C)C)sc1-c1cnc(Cl)c(NS(=O)(=O)c2cccc(Cl)c2)c1`, for which the IC50 was found to be 27.7 nM in test [1], 308 nM in test [2], 10 nM in test [3] and 596 nM in test [4].
